Consider three compounds from ChEMBL document CHEMBL5715954, “Silencing c-Myc translation as a therapeutic strategy through targeting PI3Kδ and CK1ε in hematological malignancies” (Blood, 2017).

Molecules are shown by their SMILES.

Common to all, as to design: scale not given: the % may be the effect or the level left
The target in assay [1] is Calcium/calmodulin-dependent protein kinase type 1B (Homo sapiens) (UniProt Q6P2M8). The assay is described as follows: Inhibition of human CAMK1b assessed as enzyme activity at 1 uM using KKALRRQETVDAL as substrate preincubated for 20 mins followed by [gamma-33P]-ATP addition and measured after 120 mins by radiometric Hot-SpotSM Kinase assay relative to control.
Calcium/calmodulin-dependent protein kinase type 1B (Homo sapiens), sequence (Q6P2M8 whole entry, the tested form may be a part): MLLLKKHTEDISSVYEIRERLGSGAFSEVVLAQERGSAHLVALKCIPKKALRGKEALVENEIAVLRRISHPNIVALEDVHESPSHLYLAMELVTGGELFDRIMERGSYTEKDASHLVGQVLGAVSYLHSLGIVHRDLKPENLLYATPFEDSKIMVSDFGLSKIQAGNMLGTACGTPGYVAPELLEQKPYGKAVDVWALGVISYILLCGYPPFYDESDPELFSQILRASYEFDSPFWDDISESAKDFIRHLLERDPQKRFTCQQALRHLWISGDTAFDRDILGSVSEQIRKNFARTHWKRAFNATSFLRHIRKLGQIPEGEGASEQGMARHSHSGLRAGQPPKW
Assay [2] has as its target LIM domain kinase 2 (Homo sapiens) (UniProt P53671). The assay is described as follows: Inhibition of human LIMK2 assessed as enzyme activity at 1 uM using cofilin 2 as substrate preincubated for 20 mins followed by [gamma-33P]-ATP addition and measured after 120 mins by radiometric Hot-SpotSM Kinase assay relative to control.
Assay [3] has as its target Tyrosine-protein kinase HCK (Homo sapiens) (UniProt P08631). The assay is described as follows: Inhibition of human HCK assessed as enzyme activity at 1 uM using KVEKIGEGTYGVVYK as substrate preincubated for 20 mins followed by [gamma-33P]-ATP addition and measured after 120 mins by radiometric Hot-SpotSM Kinase assay relative to control.
Assay [4] deals with T1, Serine/threonine-protein kinase Sgk1 (Homo sapiens) (UniProt O00141).
T1 sequence (whole entry): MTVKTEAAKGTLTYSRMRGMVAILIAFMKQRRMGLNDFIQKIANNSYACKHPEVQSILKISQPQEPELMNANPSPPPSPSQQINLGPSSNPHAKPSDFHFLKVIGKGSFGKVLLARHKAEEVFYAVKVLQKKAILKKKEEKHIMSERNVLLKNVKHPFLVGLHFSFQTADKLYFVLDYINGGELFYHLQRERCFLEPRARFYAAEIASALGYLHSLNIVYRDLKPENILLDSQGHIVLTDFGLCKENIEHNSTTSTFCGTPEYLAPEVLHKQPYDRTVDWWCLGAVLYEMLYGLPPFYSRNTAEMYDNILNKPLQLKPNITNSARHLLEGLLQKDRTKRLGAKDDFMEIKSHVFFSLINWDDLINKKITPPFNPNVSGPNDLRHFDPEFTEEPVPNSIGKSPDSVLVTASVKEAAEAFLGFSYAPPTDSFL
The assay is described as follows: Inhibition of human SGK1 assessed as enzyme activity at 1 uM using KGSGSGRPRTSSFAEG as substrate preincubated for 20 mins followed by [gamma-33P]-ATP addition and measured after 120 mins by radiometric Hot-SpotSM Kinase assay relative to control.

For assay [5], the target named is Mitogen-activated protein kinase 8 (Homo sapiens) (UniProt P45983). Description: Inhibition of human JNK1-alpha1 assessed as enzyme activity at 1 uM using ATF2 as substrate preincubated for 20 mins followed by [gamma-33P]-ATP addition and measured after 120 mins by radiometric Hot-SpotSM Kinase assay relative to control.
Mitogen-activated protein kinase 8 (Homo sapiens), sequence (P45983 whole entry): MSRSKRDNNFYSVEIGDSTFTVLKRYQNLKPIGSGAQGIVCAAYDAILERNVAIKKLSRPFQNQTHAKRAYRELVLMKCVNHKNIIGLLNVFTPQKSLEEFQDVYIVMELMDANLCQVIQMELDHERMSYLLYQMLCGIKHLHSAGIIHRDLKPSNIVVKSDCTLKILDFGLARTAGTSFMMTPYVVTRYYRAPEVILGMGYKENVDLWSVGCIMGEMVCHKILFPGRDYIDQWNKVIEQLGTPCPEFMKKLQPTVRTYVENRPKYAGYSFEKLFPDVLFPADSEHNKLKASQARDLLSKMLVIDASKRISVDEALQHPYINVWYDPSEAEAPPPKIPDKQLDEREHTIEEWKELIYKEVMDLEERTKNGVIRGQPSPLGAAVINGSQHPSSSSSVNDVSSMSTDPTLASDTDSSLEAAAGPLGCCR
The target in assay [6] is Calcium/calmodulin-dependent protein kinase type II subunit gamma (Homo sapiens) (UniProt Q13555). Description: Inhibition of human CAMK2g assessed as enzyme activity at 1 uM using KKLNRTLSFAEPG as substrate preincubated for 20 mins followed by [gamma-33P]-ATP addition and measured after 120 mins by radiometric Hot-SpotSM Kinase assay relative to control.
Calcium/calmodulin-dependent protein kinase type II subunit gamma (Homo sapiens), sequence (Q13555 whole entry): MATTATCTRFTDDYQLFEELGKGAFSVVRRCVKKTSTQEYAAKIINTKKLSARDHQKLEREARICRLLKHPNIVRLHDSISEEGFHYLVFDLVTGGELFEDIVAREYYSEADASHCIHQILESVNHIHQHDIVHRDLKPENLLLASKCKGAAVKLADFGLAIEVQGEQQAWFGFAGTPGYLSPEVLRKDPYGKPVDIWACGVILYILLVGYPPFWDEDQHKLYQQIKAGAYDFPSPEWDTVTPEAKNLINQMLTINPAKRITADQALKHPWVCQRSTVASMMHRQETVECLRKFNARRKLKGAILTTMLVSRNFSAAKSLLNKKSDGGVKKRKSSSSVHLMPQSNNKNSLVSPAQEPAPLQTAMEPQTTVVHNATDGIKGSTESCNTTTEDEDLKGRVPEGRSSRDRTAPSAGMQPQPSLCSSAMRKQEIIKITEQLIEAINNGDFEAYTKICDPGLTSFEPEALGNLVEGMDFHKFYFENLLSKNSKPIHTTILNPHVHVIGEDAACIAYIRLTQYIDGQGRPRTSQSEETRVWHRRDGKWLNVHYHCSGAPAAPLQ
For assay [7], the target named is Cyclin-dependent kinase 5/CDK5 activator 1 (Homo sapiens) (UniProt Q00535+Q15078). The assay is described as follows: Inhibition of human CDK5/p25 assessed as enzyme activity at 1 uM using RB Protein as substrate preincubated for 20 mins followed by [gamma-33P]-ATP addition and measured after 120 mins by radiometric Hot-SpotSM Kinase assay relative to control. It is filed as protein-complex assay.
Cyclin-dependent kinase 5/CDK5 activator 1 (Homo sapiens), sequence (Q00535 whole entry): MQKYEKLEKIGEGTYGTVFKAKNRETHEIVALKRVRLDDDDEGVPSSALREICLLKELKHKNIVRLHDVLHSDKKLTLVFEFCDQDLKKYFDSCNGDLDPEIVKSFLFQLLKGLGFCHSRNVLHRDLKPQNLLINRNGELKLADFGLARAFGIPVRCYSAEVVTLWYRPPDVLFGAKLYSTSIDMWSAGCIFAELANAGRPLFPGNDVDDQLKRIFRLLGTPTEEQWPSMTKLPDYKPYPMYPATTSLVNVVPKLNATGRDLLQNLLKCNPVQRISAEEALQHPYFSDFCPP
Cyclin-dependent kinase 5/CDK5 activator 1 (Homo sapiens), sequence (Q15078 99-307 partner limits assumed): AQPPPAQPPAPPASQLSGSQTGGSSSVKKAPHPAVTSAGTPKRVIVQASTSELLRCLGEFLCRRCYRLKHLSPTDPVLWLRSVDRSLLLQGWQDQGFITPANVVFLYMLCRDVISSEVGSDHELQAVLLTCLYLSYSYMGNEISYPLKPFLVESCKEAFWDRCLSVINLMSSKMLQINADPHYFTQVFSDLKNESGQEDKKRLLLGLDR

For assay [8], the target named is T2, NUAK family SNF1-like kinase 1 (Homo sapiens) (UniProt O60285).
T2 sequence (whole entry): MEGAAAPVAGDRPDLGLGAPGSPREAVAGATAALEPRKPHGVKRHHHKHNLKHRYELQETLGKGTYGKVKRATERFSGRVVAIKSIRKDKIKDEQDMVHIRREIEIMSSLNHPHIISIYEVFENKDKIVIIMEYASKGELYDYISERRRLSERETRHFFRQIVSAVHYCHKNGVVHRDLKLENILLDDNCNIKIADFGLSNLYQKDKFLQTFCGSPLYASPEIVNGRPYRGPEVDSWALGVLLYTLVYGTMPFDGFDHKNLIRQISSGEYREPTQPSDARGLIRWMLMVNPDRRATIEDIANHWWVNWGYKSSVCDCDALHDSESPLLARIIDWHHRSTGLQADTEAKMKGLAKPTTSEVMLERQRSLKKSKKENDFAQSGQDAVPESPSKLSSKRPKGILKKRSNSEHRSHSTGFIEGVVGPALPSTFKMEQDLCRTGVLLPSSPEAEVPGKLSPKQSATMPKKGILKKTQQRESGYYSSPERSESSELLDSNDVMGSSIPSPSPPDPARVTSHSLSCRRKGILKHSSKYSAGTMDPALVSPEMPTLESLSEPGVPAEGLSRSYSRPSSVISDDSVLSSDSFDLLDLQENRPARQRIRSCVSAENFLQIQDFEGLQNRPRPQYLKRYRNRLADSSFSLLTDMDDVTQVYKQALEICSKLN
The assay is described as follows: Inhibition of human ARK5 assessed as enzyme activity at 1 uM using KKKVSRSGLYRSPSMPENLNRPR as substrate preincubated for 20 mins followed by [gamma-33P]-ATP addition and measured after 120 mins by radiometric Hot-SpotSM Kinase assay relative to control.

LIM domain kinase 2 (Homo sapiens), sequence (P53671 whole entry, looked up, the tested form may be a part): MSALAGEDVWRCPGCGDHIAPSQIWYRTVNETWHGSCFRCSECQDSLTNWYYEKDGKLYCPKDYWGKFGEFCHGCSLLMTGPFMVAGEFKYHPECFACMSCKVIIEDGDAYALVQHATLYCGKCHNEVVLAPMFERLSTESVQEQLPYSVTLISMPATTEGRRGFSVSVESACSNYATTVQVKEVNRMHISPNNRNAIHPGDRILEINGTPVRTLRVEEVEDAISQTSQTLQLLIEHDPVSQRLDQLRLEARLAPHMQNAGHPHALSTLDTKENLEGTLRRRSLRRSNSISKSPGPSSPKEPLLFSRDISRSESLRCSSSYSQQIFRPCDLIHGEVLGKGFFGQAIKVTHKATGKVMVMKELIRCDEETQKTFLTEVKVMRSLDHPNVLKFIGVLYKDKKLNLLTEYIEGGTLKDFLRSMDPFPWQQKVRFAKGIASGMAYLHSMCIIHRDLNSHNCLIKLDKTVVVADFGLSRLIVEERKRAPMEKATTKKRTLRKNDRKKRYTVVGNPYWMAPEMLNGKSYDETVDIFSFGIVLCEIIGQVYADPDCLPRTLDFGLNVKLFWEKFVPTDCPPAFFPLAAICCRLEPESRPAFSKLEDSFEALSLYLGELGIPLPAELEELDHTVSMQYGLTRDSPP
Tyrosine-protein kinase HCK (Homo sapiens), sequence (P08631 2-526 limits assumed): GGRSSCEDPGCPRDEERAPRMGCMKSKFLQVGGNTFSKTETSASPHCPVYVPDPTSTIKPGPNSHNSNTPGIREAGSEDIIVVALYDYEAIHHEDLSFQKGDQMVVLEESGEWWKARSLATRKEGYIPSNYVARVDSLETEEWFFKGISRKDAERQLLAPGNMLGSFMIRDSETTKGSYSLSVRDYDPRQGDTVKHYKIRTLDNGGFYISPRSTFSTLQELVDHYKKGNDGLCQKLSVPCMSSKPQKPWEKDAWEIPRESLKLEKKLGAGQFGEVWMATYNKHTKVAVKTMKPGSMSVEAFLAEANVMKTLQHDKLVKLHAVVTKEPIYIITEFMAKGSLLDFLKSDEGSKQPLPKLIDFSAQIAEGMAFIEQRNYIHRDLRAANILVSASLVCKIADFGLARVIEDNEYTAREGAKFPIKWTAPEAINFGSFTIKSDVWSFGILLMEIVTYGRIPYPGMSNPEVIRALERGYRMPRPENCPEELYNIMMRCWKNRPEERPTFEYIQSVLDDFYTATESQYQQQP

`C[C@H](Nc1ncnc2nc[nH]c12)c1cc2cccc(Cl)c2c(=O)n1-c1ccccc1`: the Activity in assay [1] was determined as 102%; in assay [2], 104%; in assay [3] it was 98.7%; in assay [4] it was 102%; in assay [5], 101%; in assay [6], 92.9%. For the same compound, the Activity in assay [7] was determined as 92.7%; in assay [8], 95%.
`CC[C@H](Nc1ncnc2[nH]cnc12)c1nc2cccc(F)c2c(=O)n1-c1ccccc1`: the Activity in assay [1] stood at 103%; in assay [2] it was 96%; in assay [3] it was 93.9%; in assay [4] it was 105%; in assay [5], 97.3%; in assay [6], 91%. Further, the Activity in assay [7] turned out to be 99.8%; in assay [8], 102%.
Turning to `CC(C)Oc1ccc(-c2nn([C@@H](C)c3oc4ccc(F)cc4c(=O)c3-c3cccc(F)c3)c3ncnc(N)c23)cc1F` [UMBRALISIB], the Activity in assay [1] was determined as 100%; in assay [2] it was 98.6%; in assay [3], 91%; in assay [4], 102%; in assay [5], 98.7%; in assay [6], 91.5%. The Activity in assay [7] was 90.3%; in assay [8], 97.8%.
